{"source": "patent US20050020672A1", "about": "“Methods of extending mammalian life span via iron chelating compounds that reduce free radical damage in mammals” (priority 1994, published 2005)", "key": {"[1]": {"assay": "FDO content of FDO-containing diets during storage over the study", "format": "physicochemical", "settings": "diets stored at 4° C., sampled at 3 month intervals over approximately two years; UV absorption", "procedure": "(§1) The FDO-containing and control diets were prepared by Teklad (Madison, Wis.) by addition of FDO to standard Purina Mouse Chow®. Diets were stored at 4° C. in sealed containers until used. The levels of FDO in the diets were 0%, 0.01%, and 0.1%.\nAt 3 month intervals throughout the study, samples of the FDO-containing Purina Mouse Chow® were ground and extracted with ethanol; the ethanol was then analyzed for FDO content by UV absorption (obtaining the absorption spectrum versus the FDO standard and then determining level of FDO at the peak absorption)."}, "[2]": {"assay": "FDO stability to stomach pH", "format": "physicochemical", "settings": "2:1:1 ethanol:propylene glycol:water at pH 1 (HCl); HPLC and UV absorption", "procedure": "(§2) Three key parameters were measured prior to starting the study: (a) FDO stability under the diet making conditions (70° C. for 3 hours under vacuum), (b) FDO stability to stomach pH (approximately pH 1), and (c) FDO absorbed intact into the blood stream of the mouse. The following were the outcomes: • (a) The FDO was mixed with ground Purina Mouse Chow® and heated to 70° C. for 3 hours under vacuum; the FDO was then extracted from the chow with ethanol and assayed by HPLC and by UV absorption spectrum. […]"}, "[3]": {"test_system": "female albino Skh:HR-1 hairless mice", "assay": "Effect of dietary FDO on mouse average life span (survival)", "format": "in vivo", "settings": "for Mean survival: control 553 days", "procedure": "Forty eight (48) female albino Skh:HR-1 hairless mice were obtained from Charles River Laboratories (Portage, Mich.). At the start of the study, the mice were approximately 20 weeks old. The mice were housed four to a standard plastic cage and given feed and water ad libitum. Sixteen (16) mice were placed on each of the three test diets described below.\nThe 2-Furildioxime (FDO) was obtained from Aldrich Chemical Co. (Milwaukee, Wis.).\nas §1\nThroughout the study, mouse weights, food consumption, and date of death were recorded."}, "[4]": {"assay": "FDO absorbed intact into the blood stream of the mouse", "format": "in vivo", "settings": "Skh mice fed chow containing 0.01% 14C-FDO for 14 days; blood analyzed by HPLC", "procedure": "as §2"}, "[5]": {"assay": "FDO stability under the diet making conditions", "format": "physicochemical", "settings": "mixed with ground Purina Mouse Chow, 70° C. for 3 hours under vacuum; ethanol extract, HPLC and UV absorption", "procedure": "as §2"}, "[6]": {"settings": "0.01% and 0.1% FDO diets vs. 0% control diet"}}, "data": [{"smiles": "ON=C(C(=NO)c1ccco1)c1ccco1", "note": "[FDO, 2-furildioxime]", "values": [{"measurement": "loss of FDO from the diets", "setting": "[1]", "value": "no detectable loss"}, {"measurement": "loss of FDO at stomach pH", "setting": "[2]", "value": "no detectable loss"}, {"measurement": "% Increase in Survival Time", "setting": "[3]; 0.01% FDO diet vs. control diet, p = 0.05", "value": 14, "unit": "%"}, {"measurement": "Mean survival", "setting": "[3]; 0.01% FDO diet, p = 0.05 vs. control", "value": 632, "unit": "days"}, {"measurement": "mouse body weights", "setting": "[3]; [6]", "value": "not different"}, {"measurement": "mouse food consumption", "setting": "[3]; [6]", "value": "not different"}, {"measurement": "% Increase in Survival Time", "setting": "[3]; 0.1% FDO diet vs. control diet, p = 0.02", "value": 20, "unit": "%"}, {"measurement": "Mean survival", "setting": "[3]; 0.1% FDO diet, p = 0.02 vs. control", "value": 664, "unit": "days"}, {"measurement": "death from all causes", "setting": "[3]; FDO-fed mice", "value": "delayed to a later date"}, {"measurement": "differences in the causes of death among the diet groups", "setting": "[3]; autopsy, 0.01% and 0.1% FDO diets vs. control", "value": "not any differences"}, {"measurement": "life span relative to the control diet", "setting": "[3]; both FDO diets (0.01% and 0.1%), statistical analysis", "value": "significantly increased"}, {"measurement": "appearance or behavioral differences", "setting": "[3]; daily observation, 0.01% and 0.1% FDO diets vs. control", "value": "No differences"}, {"measurement": "FDO in blood after dietary administration", "setting": "[4]", "value": "Intact FDO was detected"}, {"measurement": "loss of FDO under diet making conditions", "setting": "[5]", "value": "no detectable loss"}]}]}
